Reference: patent US20080146630A1, “CRYSTAL FORM OF 2-(3-FLUORO-4-HYDROXYPHENYL)-7-VINYL-1,3-BENZOXAZOL-5-OL” (WYETH, priority 2006, published 2008)

Assay: Conversion of Form E on suspending and stirring in solvent (slurry)
Type: physicochemical
From the text: The anhydrate crystal form (Form E) can be converted to other crystal forms under suitable conditions.

crystal form conversion after suspension and stirring (suspended and stirred in water at room temperature for seven days): converted to a hydrate crystal form
SMILES: C=Cc1cc(O)cc2nc(-c3ccc(O)c(F)c3)oc12 [Form E, 2-(3-fluoro-4-hydroxyphenyl)-7-vinyl-1,3-benzoxazol-5-ol]
crystal form conversion after suspension and stirring (suspended and stirred in acetone at room temperature for seven days): another anhydrate crystal form is obtained
crystal form conversion after suspension and stirring (suspended and stirred in ethanol at room temperature for seven days): another anhydrate crystal form is obtained
